Patent publication US10849989B2, “Isolated composite drug and carrier nanoparticles” (University of Limerick, priority 2016, dated 2020)

Key:
[1] = isoelectric point; cited from earlier work
[2] = Zeta potential determination (electrophoretic light scattering, Malvern Zetasizer Nano ZSP); format: physicochemical; settings: particles without surface treatment agent, suspension in water, 25° C.
Procedure: Zeta potential can be determined from electrophoretic mobility using the Smoluchowski calculation. The electrophoretic mobility value can be determined at 25° C. by electrophoretic light scattering (ELS), e.g. using a Malvern Zetasizer Nano ZSP system. Such commercially available ELS instrumentation will directly provide zeta potential values. Aqueous suspensions are filled into a folded capillary cell and equilibrated at 25° C. for 120 seconds before measurement. Three measurements are taken per run and each sample is run twice. The average value and the variation between measurements can be reported.
Unless otherwise stated, reference to zeta potential is a reference to the zeta potential of a suspension of the particles in water at neutral pH (pH 7) at standard ambient temperature and pressure (SATP, 25° C. and 100 kPa).
Zetapotential measurements were conducted on a Malvern Zetasizer Nano ZSP system. Zetapotential was determined from the electrophoretic mobility using the Smoluchowski approximation. The samples (without dilution) were filled into a folded capillary cell and equilibrated at 25° C. for 120 s before measurement. Three measurements were taken per run and each sample was run twice. The average value and the variation between measurements were reported.

[3] = Particle size analysis by laser diffraction (Malvern Mastersizer 3000); format: physicochemical; settings: water as dispersion medium
Procedure: Particle size can be determined by laser diffraction, for example using a Malvern Mastersizer 3000.
Particle size measurements were performed by laser diffraction using a Malvern Mastersizer 3000, with water as the dispersion medium. In cases where the particle size was not stable, HPMC and SDS were added to the water dispersant at a concentration of 0.038 mg/mL each to minimise variation between consecutive measurements. Precipitated drug suspensions were diluted by a factor of 5 with water prior to their introduction to the measurement vessel. An MMT control was treated by the conditions used during antisolvent precipitation before measuring its particles size. An obscuration rate of 7-10%, a stir rate of 2300 rpm, a 1 min pre-measurement delay (including 20 sec with 5% sonication power) were the conditions used during all size measurements. A refractive index of 1.55 and an absorption index of 0.01 were used for FF measurements. A refractive index of 1.55 and an absorption index of 0.1 were used for MMT measurements. Four measurements were taken per run and each sample was run twice. The D50 was reported for each size distribution and averaged across all measurements. Measurement variations were also reported.

[4] = Drug loading of nanoparticles on carrier; format: physicochemical; settings: on the PA-MMT carrier (4.6 mg PA/g MMT)
Source text: The drug loading in % w/w is the amount of drug in grams per 100 g of functionalised carrier particles. A high drug loading is beneficial for delivering a sufficient dose to a patient. In embodiments the composite has a drug loading of at least 2, 4, 6, 8, 9, 10, 15, 20, 30, 40 or 50% w/w. In embodiments the composite has a drug loading of no more than 100, 90, 80 or 70% w/w.
The drug loading (% w/w) can also be determined by dissolution testing whereby a known mass of dry drug loaded carrier particles is dissolved in a known volume of dissolution media. […] The concentration of drug in the dissolution media is measured by UV/Vis and/or HPLC spectroscopic methods until it stops increasing with time. The mass of drug present on the known mass of drug loaded carrier particles can thus be estimated and the drug loading in (% w/w) can be calculated.
Nanoparticles of both fenofibrate (FF) and mefenamic acid (MEF) were generated by antisolvent precipitation. An organic solution of FF in ethanol (1 mL, 50 mg/mL) was quickly introduced by Eppendorf pipet to 10 mL antisolvent containing (a) water, (b) an MMT suspension in water (50 mg/mL, equilibrated for >2 hrs) or (c) a protamine-modified MMT suspension in water (50 mg/mL, 4.6-189.9 mg PA/g MMT, equilibrated for >2 hrs). Solutions/suspensions were maintained at 25° C. under rapid agitation (800 rpm) throughout the precipitation process. […]

Row | Compound | pI [1] | zeta potential [2] [mV] | particle size D50 [3] [μm] | drug loading [4] [%]
1 | C[C@H](N)C(=O)O [Alanine] | 6.00 | – | – | –
2 | Cc1cccc(Nc2ccccc2C(=O)O)c1C [mefenamic acid] | – | −35.3 | 0.84±0.05 | 4.8
3 | Galatine B | 5 | – | – | –
4 | Avidin [Avidin (glycoprotein)] | 10.5 | – | – | –
5 | Gelatine A | 6-9 | – | – | –
